Read-outs that look alike come from different tables or passages of the source.
Experiments:
[1] = system: NSC34 cells; assay: NSC34 oxidative stress assay (serum withdrawal, DCF); settings: Mus musculus, NSC-34, 24 h, read-out: NSC34 oxidative stress assay Max reduction
Procedure: (§3) Media were then replaced with serum-free, phenol-free media for 5 h.

[2] = system: C6 astrocyte cell line; assay: C6 oxidative stress assay (serum withdrawal, DCF); settings: Rattus norvegicus, Astrocyte; for Emax: 24 h, read-out: C6 oxidative stress assay Max reduction; for IC50: read-out: C6 oxidative stress assay IC50
Procedure: as §3

[3] = system: 1321N1 astrocyte cell line
Procedure: as §3

[4] = system: Nrf2-ARE pathway; assay: ARE reporter assay in CHO 4xARE-TK-GFP cells (Spectrum library hits)
Procedure: The Z′ score was calculated as follows Z′=1−(3SD^++3SD^−)/(Ave^+–Ave^−) where SD^+ = standard deviation of positive control wells; SD^− = standard deviation of negative control wells; Ave^+ = average fluorescence reading of positive control wells; Ave^− = average fluorescence reading of negative control wells.
Media was removed by hand and replaced (1 compound/well) with the Spectrum library diluted to 10 μM in 0.1% DMSO using a Q-bot liquid handling system (Genetix, New Milton, UK). […] The TK-GFP CHO ARE cell line was screened twice in a single point assay and the control TK-GFP CHO cell line was screened once to eliminate false positives.
The compounds were applied in triplicate to confluent cells in 96 well plates in serum free medium for 24 hours and the induction of GFP measured in a fluorescence plate reader.
In order to screen the Spectrum collection of 2000 molecules the reporter assay was optimised in […]. To assess the suitability of the assay for library screening, a Z’ score calculation was performed by treating alternate wells with vehicle (0.1% DMSO) and 10 µM Ebselen as a positive control (see calculation in Methods). […] The library was subsequently screened at a single point concentration of 10µM for every compound. Drug library dilutions and plating were performed with a Q-BOT liquid handling system and both the 4xARE-TK-GFP reporter cell line and TK-GFP control cell line were tested for their response to the compounds. Hits were identified as having data points more than three standard deviations above the background level, which was the average value of 24 wells treated with vehicle (0.1% DMSO) only. Hit compounds were checked to see if they generated a response in the control cell line, for example by non-specific activation of transcription or autofluorescence. […] The library screen was repeated once in the 4xARE –TK-CHO cell line and compounds classed as hits in both screens were taken forward for further assessment.

[5] = system: 1321N1 astrocyte cell line; assay: 1321N1 oxidative stress assay (serum withdrawal, DCF); settings: Homo sapiens; for Emax: 1321-N1, 24 h, read-out: 1321N1 oxidative stress assay Max reduction; for IC50: 1321-N1, read-out: 1321N1 oxidative stress assay IC50
Procedure: as §3

[6] = system: C6 astrocyte cell line
Procedure: as §3

[7] = system: NSC34 cells
Procedure: as §3

[8] = system: primary mouse motor neurons; assay: Primary motor neuron/astrocyte coculture, menadione stress; format: cell-based; settings: 24-h pretreatment, 6 h 10 µM menadione
Procedure: Mouse glial cultures were established based on published methods [[68,69]]. Primary spinal cord motor neurons (MNs) were cultured from E13.5 C57Bl/6 mouse embryos as described previously. Cocultures were allowed to establish for 2 weeks and neuroprotection assays performed. Cocultures were exposed to drug or vehicle for 24 h followed by a 6-h treatment with menadione (10 μM) to induce oxidative stress or with no stress to determine the effect of drug alone. Following stress treatment, coverslips were washed 3 times, fixed, and permeabilised, and MNs immunostained with SMI32 (Covance, UK). Total MNs were counted by fluorescence microscopy in a 1.5 cm^2 area per coverslip. A minimum of three repeats in triplicate were performed per condition. Both vehicle and drug treatments were counted with and without stress treatment, and results were analysed by two-way ANOVA using Bonferroni post tests.

[9] = system: NQO1 and HO-1 gene expression; assay: Q-RTPCR in astrocytes from SOD1G93A transgenic mice; format: cell-based, mouse; settings: G93A SOD1 astrocytes, 24-h pretreatment at EC90 (andrographolide also EC50)
Procedure: (§1) Nrf2 Target gene expression was determined using Q-RTPCR as described previously using the following primers: Ho-1 forward primer, cac ttc gtc aga ggc ctg cta; Ho-1 reverse primer, gcg gtg tct ggg atg agc ta; Nqo1 forward primer, cgc ctg agc cca gat att gt; Nqo1 reverse primer, act gca atg gga act gaa ata tca; GAPDH forward, gaa acc tgc caa gta tga tga cat; GAPDH reverse, ggt cct cag tgt agc cca aga t.

[10] = system: HO-1 and NQO1 gene expression; assay: Q-RTPCR of Nrf2-regulated genes in primary mouse astrocytes; format: cell-based; settings: 24-h treatment at EC50 and EC90
Procedure: as §1

[11] = system: HO-1 and NQO1 gene expression; assay: Q-RTPCR of Nrf2-regulated genes in C6 cells; format: cell-based, rat; settings: C6, 24-h treatment at EC50 and EC90
Procedure: as §1

[12] = system: Nrf2-ARE pathway; assay: ARE reporter assay in NSC34 cell line (NSC34-ARE); format: cell-based, mouse
Excerpt: (§2) Chinese hamster ovary (CHO), NSC34 mouse motor neuronal cells […] The ARE-TK-GFP and TK-GFP reporter constructs were a kind gift from William E. Fahl McArdle Laboratory for Cancer Research, University of Wisconsin. […] The NSC34 cell lines stably expressing G93A mutant hSOD1 have been described previously. […] Mouse embryonic fibroblasts were generated and maintained as described previously.

[13] = system: primary mouse astrocytes; assay: Total glutathione assay in primary mouse astrocytes and conditioned media; format: cell-based; settings: 24-h pretreatment
Procedure: Primary astrocytes were grown to confluency in 24-well plates and then treated with drug (or 0.05% DMSO vehicle) in phenol red-free DMEM containing 10% FBS and penicillin/streptomycin for 24 h. Conditioned medium was collected and astrocytes were then washed in ice-cold PBS before addition of 250 μl/well of sulphosalicylic acid (SSA, 5% (w/v)). Plates were frozen at −80 °C and thawed at 37 °C, twice, and then incubated at 4 °C for 15 min. The supernatant was removed and centrifuged at 13,000 g for 5 min. Conditioned medium samples were incubated at 80 °C for 15 min and then centrifuged at 13,000 g for 5 min. Samples were either used immediately or stored at −80 °C. Reaction mixture (150 μl/well; 100 mM potassium phosphate buffer, pH 7.0, 1 mM EDTA, 6 Units/ml glutathione reductase, 1.5 mg/ml 5,5′-dithiobis(2-nitrobenzoic acid)) was added to 10 μl of each sample or glutathione standard (0–50 μM reduced glutathione) in a 96-well plate and incubated at room temperature for 5 min before addition of 50 μl/well of NADPH solution (0.16 mg/ml). A412nm was measured every minute for 15 min and the total glutathione concentration (GSH + GSSG) was calculated from initial rates. Samples were tested in triplicate.

[14] = Pharmacokinetic analysis in C57Bl/6 mice; format: in vivo, mouse; settings: C57Bl/6, mouse, brain / plasma; iv 1 mg/kg; read-out: brain uptake (AUCinfinity brain / AUCinfinity plasma)
Procedure: Pharmacokinetic studies were performed by Pharmidex (London, UK). […] All concentrations were calculated with reference to the relevant standard curve. An extraction buffer (EB) solution of acetonitrile with 0.1% formic acid (Fisher Scientific, HPLC grade) and 500 ng/ml of propranolol as the internal standard (IS) was used for in all extraction protocols.

[15] = system: primary fibroblasts from ALS patients; assay: Oxidative stress assay in ALS patient and control fibroblasts; format: cell-based, human; settings: 4 µM
Procedure: Fibroblasts were obtained from human controls (n=3) and ALS patients with I113T SOD1 mutations (n=3) and sporadic ALS patients (n=2). […] The cells were incubated at 37 °C/5% CO2 overnight. The following day the media were removed and the cells were washed with 200 µl 1XP BS. Phenol red-free DMEM/F12 media (Sigma D6434) was added in the presence of 10% serum/2 mM Gln (++), 10% serum/0 mM Gln (+−), or 0% serum/0 mM Gln (−−). Cells were incubated at 37 °C/5% CO2 for 5 h.
Carboxy-H2DCFDA fluorescence was normalised to live cell number (total EthD1 signal after freeze/thaw – EthD1 signal after assay) to compare between the different cell lines. Data were analysed by one-way ANOVA with Bonferroni post tests using GraphPad Prism
DMEM/F12 (50 µl) media were added in the presence of 10% serum/0 mM Gln (+−) and the cells were incubated at 37 °C and 5% CO2 for 5 h.
The data were tested for normality and analysed by one-way ANOVA using GraphPad Prism.

[16] = system: Nrf2-ARE pathway; assay: ARE reporter assay in C6 astrocyte cell line (C6-ARE); format: cell-based, rat
Excerpt: as §2

[17] = system: SOD1G93A transgenic mice; assay: SOD1G93A transgenic mouse model of ALS; format: in vivo
Procedure: Pharmacology experiments in SOD1^G93A transgenic mice were conducted according to the published guidelines for studies in this model. […] The litters were split to enable an even distribution of sex and parentage between the two comparison groups and the groups randomly assigned to treatment or control. […] Behavioural assessment was carried out blinded to treatment group. Rotarod training was performed over 3 days with 2 trials per day. Subsequently, the rotarod test was performed once per week in the afternoon. On each day, mice were tested twice with a rest period in between tests. The best score was taken for analysis. […] Latency to fall (s) was recorded in seconds for each mouse. […] They were placed on the catwalk apparatus in complete darkness and the recording of gait patterns was performed in a separate room. Multiple runs were recorded for each mouse and three selected for analysis. Processing of gait data was performed using the dedicated software, with the assignment of limbs performed manually and subsequent automated calculation of gait parameters.
Specimens were incubated overnight in 20% sucrose and then embedded in OCT embedding matrix. Thirty five-micrometer-thick longitudinal sections were collected. […] Images were captured on an Incell 2000 and innervated (yellow) or denervated (red) end-plates were counted with a minimum of 1000 NMJs counted per animal.

[18] = system: primary fibroblasts from ALS patients; assay: Menadione-induced cell death in fibroblasts (MTT); format: cell-based, human; settings: sporadic and I113T SOD1 ALS fibroblasts, 4 µM
Procedure: The method used was essentially as described previously. Briefly methylthiazolyldiphenyl-tetrazolium bromide (MTT) was added to the cells and a blank well to a final concentration 0.5 mg/ml and incubated at 37 °C for 1–3 h depending on the cell line used. Cells and reaction product were solubilised in 20% SDS/50% DMF for 1 h with shaking at room temperature before reading the absorbance at 595 nm.

[19] = system: HO-1 gene expression; assay: Pharmacodynamic analysis: gene expression in spinal cord; format: in vivo, mouse; settings: 5 mg/kg sc, 48 h postdosing
Excerpt: RNA was isolated using Qiagen RNeasy mini kit and Q-RTPCR performed on HO-1 and NQO-1 genes as described previously.

[20] = lowest dose at which a reduction in GFP fluorescence was observed

SMILES	Emax [1] [%]	Emax [2] [%]	IC50 [2] [µM]	1321N1 oxidative stress assay Toxic dose [3]	EC50 ([4]; Cricetulus griseus) [µM]	Toxic dose [4, 20]	Emax [5] [%]	IC50 [5] [µM]	C6 oxidative stress assay Toxic dose [6]	NSC34 oxidative stress assay Toxic dose [7]	other results
Oc1ccc(O)cc1 [Hydroquinone, reference compound]	0	67	7.07	None	3.07	100 µM	80	3.38	None	None	
CC(=O)CCC(=O)O [Levulinic acid]	15	62	7.69	None	12	None	58	3.31	None	None	
C=C(C)C1(O)OC(=O)C=C1OC (stereo not drawn) [Penicillic acid]	9	68	4.62	none	14.9		45		none	none	Toxic dose ([4]; Chinese hamster): 100 µM; maximal fold induction ([4]; Cricetulus griseus, CHO, 24 h, read-out: Fold GFP induction): 2.64
O=C(CCBr)N1CCN(C(=O)CCBr)CC1 [Pipobroman, reference compound]	30	71	11		10	100 µM	19	3.16	none	none	1321N1 oxidative stress assay Toxic dose ([3]; human): 10 µM
CN1CCc2cccc3c2[C@@H]1Cc1ccc(O)c(O)c1-3 [S[+]-apomorphine]											motor neuron numbers after menadione [8]: significant neuroprotective effects; transcripts for NQO1 and HO1 [9]: significant increase in transcripts; HO-1 and NQO1 gene expression [10]: statistically significant changes in gene expression; HO-1 and NQO1 gene expression [11]: statistically significant changes in gene expression; activation of Nrf2-ARE reporter [12]: shows some activation; concentration showing activation of Nrf2-ARE reporter [12]: ≥ 1 µM; total glutathione levels [13]: enhance glutathione production; Kp [14]: 2.28; reduction of oxidative stress (DCF) in control fibroblasts ([15]; control fibroblasts): nonsignificant; basal oxidative stress (DCF) in patient fibroblasts ([15]; sporadic and I113T SOD1 ALS fibroblasts, 24 h): significant reduction in basal oxidative stress; potency of Nrf2-ARE activation compared with the R[–] enantiomer ([16]; C6 cells): equally potent; EC50 ([16]; Rattus norvegicus, C6 astrocyte cell line, concentration used in fibroblast assay, read-out: approximate EC50 concentration): ~4 µM; time taken to reach a 20% decline in rotarod performance (median) ([17]; 5 mg/kg sc daily from Day 21, vehicle 6 weeks): 8 weeks; oxidised glutathione levels in spinal cord ([17]; 60 days of age, vehicle 7.1): 4.2 µM; gastrocnemius muscle innervation ([17]; 60 days of age, vehicle 28.1%): 39.5%; survival ([17]; failure of the righting response within 10 s): did not observe a significant improvement in survival; fore-limb and hind-limb stride length (gait analysis) ([17]; later stages of disease): significant delay in decline; motor neuron numbers at end-stage ([17]; mouse, in vivo): did not observe a significant improvement; menadione-induced cell death (MTT) [18]: significantly attenuated cell death; HO-1 gene induction in whole spinal cord [19]: 3.5 fold
